Where “and” joins values, the source holds several entries; their conditions need not be identical. Equal entries are not always repeated. Where two headings read alike, the source gives them in different places.
Experiments:
PIN8 = biological target: T1, PIN8 (Arabidopsis thaliana, UniProt Q9LFP6); test: SSM electrophysiology, KD by inhibition of the NPA binding current; settings: individual sensors
T1 construct: made in house
T1 sequence (Q9LFP6 1-367): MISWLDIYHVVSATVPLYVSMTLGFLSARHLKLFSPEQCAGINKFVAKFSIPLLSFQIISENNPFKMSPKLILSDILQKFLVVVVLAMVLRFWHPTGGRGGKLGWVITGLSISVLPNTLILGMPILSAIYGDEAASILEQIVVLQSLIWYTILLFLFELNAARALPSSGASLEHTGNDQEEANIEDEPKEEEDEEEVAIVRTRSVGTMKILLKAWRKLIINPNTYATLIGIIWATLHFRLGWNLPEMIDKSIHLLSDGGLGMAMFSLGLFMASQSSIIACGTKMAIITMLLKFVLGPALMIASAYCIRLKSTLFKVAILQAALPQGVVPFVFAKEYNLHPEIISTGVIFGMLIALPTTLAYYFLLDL

A. thaliana PIN8 = biological target: T2, A. thaliana PIN8 (Arabidopsis thaliana, UniProt Q9LFP6); test: SSM electrophysiology, peak current response on PIN8 proteoliposomes; type: biochemical; settings: for Peak current: WT, individual sensors; for Peak current (nA): Sensor 1-3
T2 construct: made in house
T2 sequence (Q9LFP6 1-367): T1 sequence (Q9LFP6 1-367)

[1] = biological target: T3, wild-type PIN8 proteoliposomes (Arabidopsis thaliana, UniProt Q9LFP6); test: SSM electrophysiology, peak width (FWHM) of current response at LPR10 and LPR50; type: biochemical; settings: for Rel. FWHM (% of LPR10): replicates
T3 construct: made in house
T3 sequence (Q9LFP6 1-367): T1 sequence (Q9LFP6 1-367)

PIN8 I51Y = biological target: T4, PIN8 I51Y (Arabidopsis thaliana, UniProt Q9LFP6, I51Y); type: biochemical; settings: Michaelis–Menten fit
T4 construct: made in house

PIN8 S55A = biological target: T5, PIN8 S55A (Arabidopsis thaliana, UniProt Q9LFP6, S55A); type: biochemical; settings: for Peak current: S55A, individual sensors
T5 construct: made in house

PIN8 S266A = biological target: T6, PIN8 S266A (Arabidopsis thaliana, UniProt Q9LFP6, S266A); type: biochemical; settings: for Peak current: S266A, individual sensors
T6 construct: made in house

PIN8 S146A = biological target: T7, PIN8 S146A (Arabidopsis thaliana, UniProt Q9LFP6, S146A); type: biochemical; settings: for Peak current: individual sensors
T7 construct: made in house

PIN8 N117A = biological target: T8, PIN8 N117A (Arabidopsis thaliana, UniProt Q9LFP6, N117A); test: SSM electrophysiology peak current, PIN8 N117A proteoliposomes; type: biochemical; settings: Substrate IAA, replicates
T8 construct: made in house
Protocol: SSM, using a SURFE2R N1 from Nanion Technologies, was conducted as described. In brief, soy polar lipid mix (38% phosphatidyl choline, 30% phosphatidyl ethanolamine, 18% phosphatidyl inositol, 7% phosphatidic acid and 7% other soy lipids) and 1-palmitoyl-2-oleoyl-sn-glycero-3-phosphocholin were purchased from Avanti. Liposomes were prepared in Ringer solution without Ca^2+ (115 mM NaCl, 2.5 mM KCl, 1 mM NaHCO3, 10 mM HEPES pH7.4, 1 mM MgCl2) and homogenized using a Lipsofast (Avestin) with a […]. Triton X-100 was added to the liposomes to a final concentration of 1% (v/v). Protein was added to liposomes to a calculated lipid-to-protein ratio (LPR) of 10 unless stated otherwise. The detergent was removed using 400 mg ml^−1 Bio Beads (BioRad) overnight at 4 °C in a rotary shaker. Proteoliposomes were frozen in liquid nitrogen and kept at −80 °C until use. Proteoliposomes were diluted 1:5 in Ringer solution without Ca^2+, sonicated five times and then applied to the sensors by centrifugation (30 min, 3,000 g, 4 °C). Non-activating buffer was Ringer solution without Ca^2+ as described unless specified otherwise, and activating buffer contained the substrate of interest. In most instances we used a single-solution exchange experiment. In this case proteoliposomes, immobilized on the supported membrane, are kept in non-activating buffer as specified. At the beginning of the experiment the non-activating buffer is replaced with fresh identical non-activating buffer, and after 1 s, activating buffer (same buffer containing substrate) is added. After another second, the buffer is replaced with non-activating buffer again. Current response is recorded throughout the entire 3 s. For competition or inhibition, the respective compound was present in non-activating and activating solutions. Each experiment was performed on at least two individual sensors. On each sensor each measurement consists of three technical replicates where the mean is calculated. KD values were determined as described previously. Briefly, the binding current induced by 100 µM NPA was recorded in the presence of different concentrations of the substrate under investigation ranging between 0 µM and 1,000 µM present in the activating solution and the non-activating solution (Extended Data Fig. 5b). […] The maximum peak current was then plotted as a function of the concentration of the substrate under investigation and plotted against the degree of inhibition and fitted with a one-site binding model using GraphPad Prism V10.4.1 The half maximal concentration corresponds to the KD of the substrate under investigation.
The protocol for expression and purification of AtPIN8 protein (Uniprot: Q9LFP6) in lauryl maltose neopentyl glycol was described previously. All point mutants were generated using Q5 Site-Directed mutagenesis kit (New England Biolabs). The C-flat Holey Carbon grids (CF-1.2/1.3, Cu-300 mesh) were glow-discharged for 45 s at 15 mA in a GloQube Plus (Quorum). […] After 1 h of incubation on ice, the sample was centrifuged at 16,000 g for 15 min before blotting to remove precipitation. A drop of 4 µl of each sample was applied to the glow-discharged grids, blotted with a Vitrobot Mark IV (ThermoFisher Scientific) using the following settings (temperature 4 °C, 100% humidity, blot time of 4 s, blot force −1) and vitrified in liquid ethane.

[2] = WT PIN8 proteoliposomes, Michaelis–Menten fit

T7 sequence (Q9LFP6 whole entry S146A): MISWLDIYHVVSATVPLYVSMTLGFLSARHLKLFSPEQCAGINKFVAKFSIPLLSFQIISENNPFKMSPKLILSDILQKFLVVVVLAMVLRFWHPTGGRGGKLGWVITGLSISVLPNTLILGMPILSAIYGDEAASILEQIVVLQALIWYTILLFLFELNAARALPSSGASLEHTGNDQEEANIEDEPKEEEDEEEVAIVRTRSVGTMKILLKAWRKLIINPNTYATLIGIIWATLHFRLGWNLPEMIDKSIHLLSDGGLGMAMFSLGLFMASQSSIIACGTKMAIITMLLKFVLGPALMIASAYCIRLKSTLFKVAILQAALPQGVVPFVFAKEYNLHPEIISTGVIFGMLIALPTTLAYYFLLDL
T6 sequence (Q9LFP6 whole entry S266A): as the sequence (Q9LFP6 whole entry S146A) above, with A146S, S266A counted along it
T8 sequence (Q9LFP6 whole entry N117A): as the sequence (Q9LFP6 whole entry S146A) above, with N117A, A146S counted along it
T5 sequence (Q9LFP6 whole entry S55A): as the sequence (Q9LFP6 whole entry S146A) above, with S55A, A146S counted along it
T4 sequence (Q9LFP6 whole entry I51Y): as the sequence (Q9LFP6 whole entry S146A) above, with I51Y, A146S counted along it

O=C(O)Cc1c[nH]c2ccccc12 [IAA, indole-3-acetic acid]
inhibition at 5 µM (PIN8; read-out: Rel. Inhibition of NPA peak currents, 5 µM substrate, 100 µM NPA): 14.1%
inhibition at 50 µM (PIN8; read-out: Rel. Inhibition of NPA peak currents, 50 µM substrate, 100 µM NPA): 57%
inhibition at 100 µM (PIN8; read-out: Rel. Inhibition of NPA peak currents, 100 µM substrate, 100 µM NPA): 77.9%
inhibition at 250 µM (PIN8; read-out: Rel. Inhibition of NPA peak currents, 250 µM substrate, 100 µM NPA): 84.7%
inhibition at 500 µM (PIN8; read-out: Rel. Inhibition of NPA peak currents, 500 µM substrate, 100 µM NPA): 94.3%
inhibition at 1000 µM (PIN8; read-out: Rel. Inhibition of NPA peak currents, 1000 µM substrate, 100 µM NPA): 84.7%
Kd (PIN8; sheet F2A (Fig. 2a, KD of substrate binding), read-out: Peak current): 38.8 µM and 54 µM and 24.3 µM
EC50 (A. thaliana PIN8; [2]): 250 µM and 254 µM
maximal current Imax (A. thaliana PIN8; [2]): 18 ± 3 nA
Peak current (A. thaliana PIN8; 5 µM substrate): 0.8096 nA and 0.6401 nA and 0.949 nA
Peak current (A. thaliana PIN8; 20 µM substrate): 1.842 nA and 1.724 nA and 2.164 nA
Peak current (A. thaliana PIN8; 50 µM substrate): 3.368 nA and 3.292 nA and 4.115 nA
Peak current (A. thaliana PIN8; 100 µM substrate): 4.516 nA and 4.8122 nA and 5.921 nA
Peak current (A. thaliana PIN8; 500 µM substrate): 9.827 nA and 10.2734 nA and 12.6135 nA
Peak current (A. thaliana PIN8; 1000 µM substrate): 13.1379 nA and 13.1579 nA and 16.4113 nA
Peak current (A. thaliana PIN8; 2000 µM substrate): 14.7357 nA and 15.0585 nA and 18.9117 nA
Peak current (nA) (A. thaliana PIN8; [IAA] 5 µM): 0.04999 nA and 0.08856 nA and 0.0843 nA
Peak current (nA) (A. thaliana PIN8; [IAA] 50 µM): 0.4222 nA and 0.6123 nA and 0.4745 nA
Peak current (nA) (A. thaliana PIN8; [IAA] 100 µM): 0.6662 nA and 0.8986 nA and 0.7119 nA
Peak current (nA) (A. thaliana PIN8; [IAA] 500 µM): 1.469 nA and 1.771 nA and 1.558 nA
Peak current (nA) (A. thaliana PIN8; [IAA] 1000 µM): 1.848 nA and 2.271 nA and 1.967 nA
Peak current (nA) (A. thaliana PIN8; [IAA] 2000 µM): 2.237 nA and 2.442 nA and 2.41 nA
Rel. FWHM (% of LPR10) ([1]; LPR10): 1.043 % of LPR10 and 0.9783 % of LPR10 (2×)
peak width of SSM-based current response as a function of lipid-to-protein ratio (LPR) ([1]; LPR10 versus LPR50): vary with lipid-to-protein ratio (LPR)
Rel. FWHM (% of LPR10) ([1]; LPR50): 2.022 % of LPR10 (2×) and 1.957 % of LPR10
Imax (PIN8 I51Y): 2 ± 0.2 nA
EC50 (PIN8 I51Y; read-out: EC50 of peak current response): 547 ± 171 µM
Imax (PIN8 S55A; PIN8 S55A, Michaelis–Menten fit): 6 ± 1 nA
EC50 (PIN8 S55A; PIN8 S55A, Michaelis–Menten fit, read-out: EC50 of peak current response): 213 ± 58 µM
Peak current (PIN8 S55A; 5 µM substrate): 0.3417 nA and 0.3232 nA and 0.2318 nA and 0.3509 nA
Peak current (PIN8 S55A; 20 µM substrate): 1.04 nA and 0.8246 nA and 0.4664 nA and 0.4596 nA
Peak current (PIN8 S55A; 50 µM substrate): 1.937 nA and 1.54 nA and 0.9207 nA and 0.8323 nA
Peak current (PIN8 S55A; 100 µM substrate): 2.888 nA and 2.325 nA and 1.514 nA and 1.385 nA
Peak current (PIN8 S55A; 500 µM substrate): 5.317 nA and 4.4508 nA and 3.048 nA and 3.044 nA
Peak current (PIN8 S55A; 1000 µM substrate): 6.258 nA and 5.302 nA and 3.739 nA and 3.804 nA
Peak current (PIN8 S55A; 2000 µM substrate): 7.104 nA and 6.138 nA and 4.476 nA and 4.5392 nA
Imax (PIN8 S266A; PIN8 S266A, Michaelis–Menten fit): 4 ± 0.6 nA
EC50 (PIN8 S266A; PIN8 S266A, Michaelis–Menten fit, read-out: EC50 of peak current response): 578 ± 183 µM
Peak current (PIN8 S266A; 5 µM substrate): 0.2201 nA and 0.07526 nA and 0.1062 nA
Peak current (PIN8 S266A; 20 µM substrate): 0.3015 nA and 0.4448 nA and 0.2134 nA
Peak current (PIN8 S266A; 50 µM substrate): 0.4871 nA and 0.8571 nA and 0.3384 nA
Imax (PIN8 S146A; PIN8 S146A, Michaelis–Menten fit): 8 ± 2 nA
EC50 (PIN8 S146A; PIN8 S146A, Michaelis–Menten fit, read-out: EC50 of peak current response): 498 ± 191 µM
Peak current (PIN8 S146A; S146A, 5 µM substrate): 0.4304 nA and 0.01967 nA and 0.2252 nA
Peak current (PIN8 S146A; S146A, 20 µM substrate): 0.857 nA and 0.324 nA and 0.6461 nA
Peak current (PIN8 S146A; S146A, 50 µM substrate): 1.458 nA and 0.6503 nA and 1.2348 nA
Peak current (PIN8 S146A; S146A, 100 µM substrate): 2.021 nA and 0.7074 nA and 1.578 nA
Peak current (PIN8 S146A; S146A, 500 µM substrate): 4.698 nA and 2.244 nA and 4.077 nA
Peak current (PIN8 S146A; S146A, 1000 µM substrate): 6.329 nA and 3.684 nA and 6.024 nA
Peak current (PIN8 S146A; S146A, 2000 µM substrate): 7.444 nA and 4.338 nA and 6.988 nA
fold-change difference to the respective EC50 of wildtype PIN8 (PIN8 S146A; S146A, direction (higher or lower affinity) shown by colour only): ~ 2 fold
Relative Peak Current of WT (%) (PIN8 N117A; 100µM): 3.5397% and 5.375% and 9.48% and 13.4511%
Relative Peak Current of WT (%) (PIN8 N117A; 2mM): 11.8985% and 14.7068% and 17.3968% and 15.4928%
